Assay results: patent US8466104B2, “Therapeutically active alpha MSH analogues” (AbbVie Inc., priority 2005, dated 2013)
Where “and” joins values, the source holds several entries; their conditions need not be identical. Equal entries are not always repeated. Entries after “also recorded” stand apart in the source; their conditions may differ. Where two headings read alike, the source gives them in different places.

What was measured:
[1] = test system: LPS induced TNF-α in plasma; assay: Inhibition of LPS induced TNFa production in rats in vivo (experimental setup 2); set-up: species or system rat; details: for inhibitory effect on plasma TNF-a compared to native a-MSH / TNF-a concentration in plasma, % of the maximal response (LPS-Vehicle) / dose at which the maximal inhibitory effect on TNF-a is achieved: iv LPS infusion; for TNF-a concentration in plasma, % of the maximal response (LPS-Vehicle): 200 μg/kg body weight iv, 120 minutes after initiation of LPS infusion; for dose at which the maximal inhibitory effect on TNF-a is achieved: doses 50, 200, 1000 μg/kg tested
Method: Inhibition of LPS Induced TNFa Production in Rats In Vivo
Experimental animals. Female Wistar rats (220-240 g) are obtained from the Charles River, Sulzfeld, Germany, and housed in a temperature- (22-24° C.) and moisture-controlled (40-70%) room with a 12 h light-dark cycle (light on from 6:00 A.M. to 6:00 P.M.). The rats are maintained on a standard rodent diet with 140 mmol/kg of sodium, 275 mmol/kg potassium and 23% protein (Altromin International, Lage, Germany) and have free access to water.
Animal preparation. […] After instrumentation, the animals are housed individually for 7-10 days until the day of the experiment.
Experimental protocol. Prior to the experiments all rats are adapted to the restraining cage used for the experiments by training them for two periods of two hours each. On the day of the experiment, the animal is transferred to a restraining cage, and an intravenous infusion of vehicle solution containing 150 mM glucose is started. The infusion rate is 0.5 ml/h throughout the experiment. After a short adaptation period, infusion of lipopolysaccharide (LPS) is started. LPS (E coli serotype 0127 B8, L 3129, Sigma, St. Louis, USA) is given at a dose of 4 mg/kg body weight delivered as an i.v. infusion over 1 hour. Arterial blood samples of 0.3 ml are taken 60, 90, and 120 minutes after start of the LPS infusion and replaced immediately with heparinized blood from a normal donor rat.
In addition to LPS infusion all rats are treated with a bolus injection of: • Vehicle (0.5 mL isotonic saline); • a-MSH in one of the following doses: 50 μg/kg bw; 200 μg/kg/bw or 1000 μg/kg bw; • Test compound in one of the following doses: 50 μg/kg bw; 200 μg/kg/bw or 1000 μg/kg bw.
Measurement of TNF-α in plasma: The blood samples are collected in a prechilled test tube with 0.5 mM EDTA, pH 7.4, and 20×10^6 IU/ml aprotinin. After centrifugation at 4° C., plasma samples are transferred to pre-chilled test tubes and stored at −20° C. for later measurements of TNF-α. TNF-α in plasma is determined by an ELISA (Biotrak, Amersham, UK).
Statistical analyses. Results are presented as means±SE. A two-way ANOVA for repeated measures is used to test for differences between groups. In case of P<0.05, the differences between corresponding periods are evaluated by unpaired t-tests with Bonferroni's correction of the level of significance.

[2] = test system: neutrophil and eosinophil infiltration in BALF after LPS inhalation; assay: Inhibition of neutrophil and eosinophil infiltration after LPS inhalation in rats (experimental setup 3); type: in vivo, rat; details: for number of eosinophils within the BALF / number of neutrophils within the BALF: 24 hours after LPS inhalation, 200 μg/kg bw iv bid; for effect on neutrophils within the BALF compared to a-MSH / reduction of eosinophils in the BALF / lungs: LPS inhalation
Method: Inhibition of Neutrophil and Eosinophil Infiltration after LPS Inhalation in Rats.
Male Sprague-Dawley rats (weight ˜200 g) from M&B A/S, DK-8680 Ry, Denmark, are used for all experiments. The rats are caged in standard cages type 3 and housed in a temperature- (22-24° C.) and moisture-controlled (40-70%) room with a 12 h light-dark cycle (light on from 6:00 A.M. to 6:00 P.M.). The diet is autoclaved Altromin 1324 special formulation, Produced by Altromin Denmark, Chr. Pedersen A/S, 4100 Ringsted, Denmark. Diet and water are administered ad libitum.
After acclimatization the rats are randomly allocated to the experimental groups and dosed i.v. with test compound at start of LPS-induction and once again 8 hours after LPS-induction.
Rats in groups of 3 are anaesthetized with 0.1 ml hypnorm/dormicum pr. 100 g and dosed i.v with the test compound. Immediately after dosing they are placed in the inhalation chamber where they are subjected to a nebulized LPS solution. The concentration of LPS is 1 mg/ml. Dosing time is 15 minutes. The rats are euthanized 24 hours after dosing with the test substance. At termination the rats are euthanized with CO2/O2. Then bronchoalveolar lavage is performed by installing and withdrawing 6×2.5 ml of PBS to the right lung. Lavage is done with the lungs remaining in the thorax after removing sternum and costae. The connection to the left lung is tied off during this procedure. Bronchoalveolar fluid (BALF) is centrifuged at 1000 rpm at 4° C. for 10 minutes. After removing the supernatant the cell pellet is resuspended in 0.5 ml PBS and total cell count performed. Two smears of BALF stained with May-Grüjwald Giemsa stain is made from each rat. BALF from each rat is subjected to total cell count and to differential count of leucocytes.
In addition to LPS infusion all rats are treated with bolus injections of either:
• a-MSH: 200 μg/kg/bw • a-MSH analogue: 200 μg/kg/bw
Data are presented as mean±S.E. Between group comparisons are performed by one way analysis of variance followed by Fishers Least Significant Difference test. Differences are considered significant at the 0.05 level.

Substance	reduction of TNF-a accumulation during iv infusion of LPS [1]	inhibitory effect on plasma TNF-a compared to native a-MSH [1]	TNF-a concentration in plasma, % of the maximal response (LPS-Vehicle) [1]	dose at which the maximal inhibitory effect on TNF-a is achieved [1]	inhibitory effect on plasma TNF-a compared to native a-MSH ([1]; listed as SEQ ID NO: 5*)	reduction of TNF-a accumulation during iv infusion of LPS ([1]; listed as SEQ ID NO: 5*)	number of eosinophils within the BALF [2]	number of neutrophils within the BALF [2]	effect on neutrophils within the BALF compared to a-MSH [2]	reduction of eosinophils in the BALF / lungs [2]	effect on neutrophils within the BALF compared to a-MSH ([2]; listed as SEQ ID NO: 5*)	reduction of eosinophils in the BALF / lungs ([2]; listed as SEQ ID NO: 5*)	inhibitory effect on plasma TNF-a compared to native a-MSH ([1]; listed as SEQ ID NO: 9*)	reduction of TNF-a accumulation during iv infusion of LPS ([1]; listed as SEQ ID NO: 9*)	inhibitory effect on plasma TNF-a compared to native a-MSH ([1]; listed as SEQ ID NO: 1*)	reduction of TNF-a accumulation during iv infusion of LPS ([1]; listed as SEQ ID NO: 1*)	reduction of eosinophils in the BALF / lungs ([2]; listed as SEQ ID NO:1*)
Ac-Lys-Lys-Lys-Lys-Lys-Lys-Ser-Tyr-Ser-Nle-Glu-His-(D-Phe)-Arg-Trp-Gly-Lys-Pro-Val-NH2 (KKKKKKSYSXEHFRWGKPV; N-acetyl, Nle, D-Phe, C-amide) [a-MSH analogue #2]	reduce TNF-a accumulation	markedly more pronounced	9±1%	200 μg/kg body weight	higher degree	significantly inhibit	34.0±8.6 ×10^5cells	9.1±2.4 ×10^5cells	much more pronounced inhibitory effects	marked reduction of eosinophils	markedly inhibited neutrophil infiltration to a much higher degree	significantly inhibits	–	–	–	–	–
Ac-Lys-Lys-Lys-Lys-Lys-Lys-Ser-Tyr-Ser-Nle-Glu-His-D-Nal-Arg-Trp-Gly-Lys-Pro-Val-NH2 (KKKKKKSYSXEHXRWGKPV; not fully specified; N-acetyl, Nle, D-Nal, C-amide) [a-MSH analogue #3]	reduce TNF-a accumulation	markedly more pronounced	11±3%	200 μg/kg body weight	–	–	–	–	–	–	–	–	higher degree	significantly inhibit	–	–	–
Ac-Lys-Lys-Lys-Lys-Lys-Lys-Ser-Tyr-Ser-Met-Glu-His-Phe-Arg-Trp-Gly-Lys-Pro-Val-NH2 (Ac-KKKKKKSYSMEHFRWGKPV-NH2) [a-MSH analogue #1]	reduce TNF-a accumulation	markedly more pronounced	9±1%	200 μg/kg body weight	–	–	49.0±10.5 ×10^5cells	–	similar	marked reduction of eosinophils	–	–	–	–	higher degree	significantly inhibit	significantly inhibits
Ser-Tyr-Ser-Met-Glu-His-Phe-Arg-Trp-Gly-Lys-Pro-Val [a-MSH, reference compound]	reduce TNF-a accumulation; also recorded: reduce TNF-α accumulation	–	17±3% and 17±30%	200 μg/kg body weight	–	–	26.7±4.3 ×10^5cells	20.1±2.5 ×10^5cells	–	marked reduction of eosinophils	–	–	–	–	–	–	–
